No end group written: not given here.
Tests used:
E. coli (EC; ATCC 10536) = test: Antibacterial activity of synthetic NB_AMPs, microtiter plate method (MIC); format: cell-based, Escherichia coli
Procedure: (§1) The cell-free supernatant of all E. coli DH5α strains containing cloned AMPs was collected after 24 h of culture and filtered through a 0.2 μm syringe (mixed cellulose esters (MCE), Merck, Darmstadt, Germany), and finally the cell-free supernatant was used for the evaluation of antibacterial activity. The cell-free supernatant from the E. coli DH5α, harboring only the plasmid vector without the NB_AMP genes, was confirmed as a negative control to have very little effect on antibacterial activities. The synthesized AMPs were suspended at a concentration of 10 mg/mL in distilled water and then used for antibacterial activity. The antibacterial activity against the Gram-negative bacterium, E. coli (EC; ATCC 10536), and the Gram-positive bacterium, Staphylococcus aureus (SA, ATCC 6538), was analyzed using the microtiter plate method and expressed as minimal inhibition concentration (MIC); the bacteria pre-cultured overnight (O/N) were cultured at 10^6 CFU/mL with the cell-free supernatant or the synthetic peptides, the reaction mixtures were added to the microtiter plate, and finally the reactivity was observed by O/N culture at 37 °C.

[1] = tested on: Staphylococcus aureus (SA, ATCC 6538); test: as above; format: cell-based
Procedure: as §1

[2] = synthetic peptides, microtiter plate, 10^6 CFU/mL, O/N culture at 37 °C, peptide stock 10 mg/mL in distilled water

Sequence	MIC50 against E. coli (E. coli (EC; ATCC 10536); ATCC 10536, 24 h) [µg/mL]	MIC50 against S. aureus ([1]; ATCC 6538, 24 h) [µg/mL]	MIC50 against E. coli (E. coli (EC; ATCC 10536); [2]) [µg/mL]	MIC50 against S. aureus [1, 2] [µg/mL]
FFGRFKKEK [NB_AMP10]	2600	2110		
GLQKYLSWVKNKRL [NB_AMP2]			170	230
GQYNQGGYGSQGGDYGQGGYGQGSMGGGYG [NB_AMP6]			9430	5830
KGAKKAGKAVKKTVKK [NB_AMP3]			3430	2880
KKLAAKEKAAAAKEKEAAKKAAAKEKK [NB_AMP9]				5050
NTLSSIASLLKK [NB_AMP5]	10210	3240		
NYKLLSNSLNILL [NB_AMP8]				8360
WQEIKNSLEDLSDSI [NB_AMP4]			4960	2950
